The source made the active and inactive calls. The calls are words filed in the database; no cut-off is given here.
Assays:
[1] = target: Histone deacetylase 3 (Homo sapiens, UniProt O15379); assay: Inhibition of HDAC3 (unknown origin) using Boc-Lys(acetyl)-AMC as substrate preincubated for 1 hrs followed by substrate addition and measured after 2 hrs by spectrophotometer based fluorometric assay
[2] = target: Phosphatidylinositol 4,5-bisphosphate 3-kinase catalytic subunit gamma isoform (Homo sapiens, UniProt P48736); assay: Inhibition of PI3Kgamma (unknown origin) using PIP2 as substrate incubated for 1 hrs in presence of ATP by ADP-Glo kinase assay
[3] = target: Histone deacetylase 4 (Homo sapiens, UniProt P56524); assay: Inhibition of HDAC4 (unknown origin) using Boc-Lys(acetyl)-AMC as substrate preincubated for 1 hrs followed by substrate addition and measured after 2 hrs by spectrophotometer based fluorometric assay
Histone deacetylase 4, sequence (P56524 whole entry): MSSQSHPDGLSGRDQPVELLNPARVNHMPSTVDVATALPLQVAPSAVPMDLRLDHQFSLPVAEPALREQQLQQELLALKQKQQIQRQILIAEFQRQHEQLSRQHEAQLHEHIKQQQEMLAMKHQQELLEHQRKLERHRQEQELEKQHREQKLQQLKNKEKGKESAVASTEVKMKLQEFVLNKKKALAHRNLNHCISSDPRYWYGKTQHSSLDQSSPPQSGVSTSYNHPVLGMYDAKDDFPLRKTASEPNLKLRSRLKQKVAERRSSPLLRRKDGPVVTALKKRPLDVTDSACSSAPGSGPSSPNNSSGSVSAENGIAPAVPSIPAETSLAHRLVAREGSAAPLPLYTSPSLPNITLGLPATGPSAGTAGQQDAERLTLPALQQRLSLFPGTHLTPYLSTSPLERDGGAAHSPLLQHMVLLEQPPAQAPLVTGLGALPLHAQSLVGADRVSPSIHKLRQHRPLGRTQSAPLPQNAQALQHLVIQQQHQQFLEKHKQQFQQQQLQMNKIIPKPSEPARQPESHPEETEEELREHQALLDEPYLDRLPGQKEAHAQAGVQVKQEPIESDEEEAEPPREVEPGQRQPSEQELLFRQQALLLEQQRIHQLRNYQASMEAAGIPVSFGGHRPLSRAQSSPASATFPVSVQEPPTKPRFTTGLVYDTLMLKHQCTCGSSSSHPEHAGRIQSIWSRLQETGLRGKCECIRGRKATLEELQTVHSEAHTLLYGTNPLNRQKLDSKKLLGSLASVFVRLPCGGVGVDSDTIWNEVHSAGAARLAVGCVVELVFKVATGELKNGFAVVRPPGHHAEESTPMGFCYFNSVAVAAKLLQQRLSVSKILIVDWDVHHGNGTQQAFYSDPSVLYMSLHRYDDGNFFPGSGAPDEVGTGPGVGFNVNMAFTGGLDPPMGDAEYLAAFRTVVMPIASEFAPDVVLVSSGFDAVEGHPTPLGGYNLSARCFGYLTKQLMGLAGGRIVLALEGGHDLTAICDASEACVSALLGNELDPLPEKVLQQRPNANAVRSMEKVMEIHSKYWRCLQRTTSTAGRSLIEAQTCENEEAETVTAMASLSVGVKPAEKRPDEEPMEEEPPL

[4] = test system: JeKo-1; assay: Induction of apoptosis in human JeKo-1 cells assessed as viable cells at 0.25 uM incubated for 48 hrs by Annexin-V/FITC and PI staining based flow cytometric analysis (reference value: 94.1%); assay type: functional; conditions: read-out: Activity
[5] = target: hERG (Homo sapiens, UniProt Q12809); assay: Inhibition of hERG transfected in CHO cells at 30 uM by manual patch-clamp assay relative to control; assay type: toxicity, cell-based; conditions: CHO cells transfected with hERG
[6] = Stability in mouse liver microsomes assessed as compound remaining at […] preincubated for 5 mins followed by NADPH addition and measured after 5 mins by LC-MS/MS analysis; assay type: ADME, Microsome; conditions: time 10 min, read-out: Stability
[7] = target: Phosphatidylinositol 4,5-bisphosphate 3-kinase catalytic subunit alpha isoform (Homo sapiens, UniProt P42336); assay: Inhibition of PI3Kalpha (unknown origin) using PIP2 as substrate incubated for 1 hrs in presence of ATP by ADP-Glo kinase assay
[8] = test system: MM1.S; assay: Antiproliferative activity against human MM1.S cells incubated for 48 hrs by resazurin dye based fluorescence micro plate reader analysis; assay type: functional, cell-based
[9] = target: CYP2C19 (Homo sapiens, UniProt P33261); assay: Inhibition of CYP2C19 in human liver microsomes using S-mephenytoin as substrate at 10 uM in presence of NADPH regenerating system by LC-MS/MS analysis relative to control; assay type: ADME, Microsome; conditions: probe S-mephenytoin
CYP2C19, sequence (P33261 whole entry): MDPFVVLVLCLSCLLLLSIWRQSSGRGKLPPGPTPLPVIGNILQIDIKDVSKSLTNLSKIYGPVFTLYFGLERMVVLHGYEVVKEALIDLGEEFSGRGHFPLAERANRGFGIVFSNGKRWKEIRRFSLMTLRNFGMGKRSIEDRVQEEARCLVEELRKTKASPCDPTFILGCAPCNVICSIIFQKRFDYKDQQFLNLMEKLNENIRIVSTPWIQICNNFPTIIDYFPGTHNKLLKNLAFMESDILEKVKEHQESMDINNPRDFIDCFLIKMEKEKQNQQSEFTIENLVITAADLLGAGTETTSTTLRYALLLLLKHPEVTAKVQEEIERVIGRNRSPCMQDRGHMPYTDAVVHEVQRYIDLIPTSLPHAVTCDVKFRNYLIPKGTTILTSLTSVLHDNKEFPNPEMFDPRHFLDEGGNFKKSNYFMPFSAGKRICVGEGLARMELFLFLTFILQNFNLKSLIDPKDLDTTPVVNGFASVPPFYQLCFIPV

[10] = Stability in mouse liver microsomes assessed as compound remaining at […] preincubated for 5 mins followed by NADPH addition and measured after 15 mins by LC-MS/MS analysis; assay type: ADME, Microsome; conditions: time 20 min, read-out: Stability
[11] = test system: JeKo-1; assay: Potency index, ratio of 4-(3-(4-(4-methoxy-6-morpholino-1,3,5-triazin-2-yl)phenyl)urea)-N-(2-ethylamino)ethylbenzamide IC50 to test compound IC50 for antiproliferative activity against human JeKo-1 cells incubated for 48 hrs by resazurin based fluorescence microplate reader analysis; assay type: functional
[12] = C0 in ICR mouse at 1 mg/kg, iv measured after 24 hrs by LC-MS/MS analysis; assay type: ADME, organism-based; conditions: in vivo
[13] = test system: JeKo-1; assay: Induction of apoptosis in human JeKo-1 cells assessed as necrotic cells at 0.5 uM incubated for 48 hrs by Annexin-V/FITC and PI staining based flow cytometric analysis (reference value: 1.05%); assay type: functional
[14] = target: CYP2B6 (Homo sapiens, UniProt P20813); assay: Inhibition of CYP2B6 in human liver microsomes using bupropion as substrate at 10 uM in presence of NADPH regenerating system by LC-MS/MS analysis relative to control; assay type: ADME, Microsome; conditions: probe bupropion
[15] = Stability in human liver microsomes assessed as compound remaining at […] preincubated for 5 mins followed by NADPH addition and measured after 15 mins by LC-MS/MS analysis; assay type: ADME, Microsome; conditions: time 20 min, read-out: Stability
[16] = Cytotoxicity against human HL7702 cells incubated for 48 hrs by resazurin dye based fluorescence micro plate reader analysis; assay type: toxicity, cell-based; conditions: HL7702 (L02) cells
[17] = test system: JeKo-1; assay: Induction of apoptosis in human JeKo-1 cells assessed as viable cells at 0.5 uM incubated for 48 hrs by Annexin-V/FITC and PI staining based flow cytometric analysis (reference value: 94.1%); assay type: functional; conditions: read-out: Activity
[18] = AUC (0 to t) in ICR mouse at 1 mg/kg, iv measured after 24 hrs by LC-MS/MS analysis; assay type: ADME, organism-based; conditions: in vivo
[19] = target: Protein deacetylase HDAC6 (Homo sapiens, UniProt Q9UBN7); assay: Inhibition of HDAC6 (unknown origin) using Boc-Lys(acetyl)-AMC as substrate preincubated for 1 hrs followed by substrate addition and measured after 2 hrs by spectrophotometer based fluorometric assay
[20] = target: Phosphatidylinositol 4,5-bisphosphate 3-kinase catalytic subunit delta isoform (Homo sapiens, UniProt O00329); assay: Inhibition of PI3Kdelta (unknown origin) using PIP2 as substrate incubated for 1 hrs in presence of ATP by ADP-Glo kinase assay
Phosphatidylinositol 4,5-bisphosphate 3-kinase catalytic subunit delta isoform, sequence (O00329 whole entry, canonical isoform): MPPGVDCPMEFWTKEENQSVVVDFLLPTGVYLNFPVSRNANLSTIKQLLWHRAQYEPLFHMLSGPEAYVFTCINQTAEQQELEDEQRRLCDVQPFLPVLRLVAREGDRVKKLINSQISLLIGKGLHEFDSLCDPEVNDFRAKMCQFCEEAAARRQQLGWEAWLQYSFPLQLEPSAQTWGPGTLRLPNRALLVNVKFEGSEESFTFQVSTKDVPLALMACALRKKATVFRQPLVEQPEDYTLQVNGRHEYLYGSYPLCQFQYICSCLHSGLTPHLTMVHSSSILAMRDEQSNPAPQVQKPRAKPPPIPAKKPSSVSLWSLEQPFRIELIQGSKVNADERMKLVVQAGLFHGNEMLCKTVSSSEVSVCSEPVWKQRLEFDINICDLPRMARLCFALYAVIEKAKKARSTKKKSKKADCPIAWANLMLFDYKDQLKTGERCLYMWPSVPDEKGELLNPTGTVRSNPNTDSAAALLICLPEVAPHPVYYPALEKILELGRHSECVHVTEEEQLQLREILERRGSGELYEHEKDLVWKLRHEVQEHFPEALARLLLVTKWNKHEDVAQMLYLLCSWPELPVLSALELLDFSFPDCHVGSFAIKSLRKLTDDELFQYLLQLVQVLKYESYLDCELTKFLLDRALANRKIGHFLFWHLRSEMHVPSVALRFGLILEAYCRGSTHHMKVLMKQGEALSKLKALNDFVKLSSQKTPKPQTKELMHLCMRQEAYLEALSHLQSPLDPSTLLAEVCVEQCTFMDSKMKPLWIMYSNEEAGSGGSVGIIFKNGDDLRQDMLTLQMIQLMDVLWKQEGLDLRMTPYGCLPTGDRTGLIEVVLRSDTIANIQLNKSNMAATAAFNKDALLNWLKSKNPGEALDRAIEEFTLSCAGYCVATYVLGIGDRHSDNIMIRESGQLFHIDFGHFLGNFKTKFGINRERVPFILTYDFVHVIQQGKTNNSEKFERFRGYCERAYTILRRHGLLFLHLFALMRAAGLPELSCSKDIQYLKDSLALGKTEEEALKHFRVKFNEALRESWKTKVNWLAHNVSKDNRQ

[21] = Stability in human liver microsomes assessed as compound remaining at […] preincubated for 5 mins followed by NADPH addition and measured after 5 mins by LC-MS/MS analysis; assay type: ADME, Microsome; conditions: time 10 min, read-out: Stability
[22] = test system: JeKo-1; assay: Induction of apoptosis in human JeKo-1 cells assessed as viable cells at 1 uM incubated for 48 hrs by Annexin-V/FITC and PI staining based flow cytometric analysis (reference value: 94.1%); assay type: functional; conditions: read-out: Activity
[23] = MRT (0 to infinity) in ICR mouse at 1 mg/kg, iv measured after 24 hrs by LC-MS/MS analysis; assay type: ADME, organism-based; conditions: in vivo
[24] = target: Phosphatidylinositol 4,5-bisphosphate 3-kinase catalytic subunit beta isoform (Homo sapiens, UniProt P42338); assay: Inhibition of PI3Kbeta (unknown origin) using PIP2 as substrate incubated for 1 hrs in presence of ATP by ADP-Glo kinase assay
Phosphatidylinositol 4,5-bisphosphate 3-kinase catalytic subunit beta isoform, sequence (P42338 whole entry, canonical isoform): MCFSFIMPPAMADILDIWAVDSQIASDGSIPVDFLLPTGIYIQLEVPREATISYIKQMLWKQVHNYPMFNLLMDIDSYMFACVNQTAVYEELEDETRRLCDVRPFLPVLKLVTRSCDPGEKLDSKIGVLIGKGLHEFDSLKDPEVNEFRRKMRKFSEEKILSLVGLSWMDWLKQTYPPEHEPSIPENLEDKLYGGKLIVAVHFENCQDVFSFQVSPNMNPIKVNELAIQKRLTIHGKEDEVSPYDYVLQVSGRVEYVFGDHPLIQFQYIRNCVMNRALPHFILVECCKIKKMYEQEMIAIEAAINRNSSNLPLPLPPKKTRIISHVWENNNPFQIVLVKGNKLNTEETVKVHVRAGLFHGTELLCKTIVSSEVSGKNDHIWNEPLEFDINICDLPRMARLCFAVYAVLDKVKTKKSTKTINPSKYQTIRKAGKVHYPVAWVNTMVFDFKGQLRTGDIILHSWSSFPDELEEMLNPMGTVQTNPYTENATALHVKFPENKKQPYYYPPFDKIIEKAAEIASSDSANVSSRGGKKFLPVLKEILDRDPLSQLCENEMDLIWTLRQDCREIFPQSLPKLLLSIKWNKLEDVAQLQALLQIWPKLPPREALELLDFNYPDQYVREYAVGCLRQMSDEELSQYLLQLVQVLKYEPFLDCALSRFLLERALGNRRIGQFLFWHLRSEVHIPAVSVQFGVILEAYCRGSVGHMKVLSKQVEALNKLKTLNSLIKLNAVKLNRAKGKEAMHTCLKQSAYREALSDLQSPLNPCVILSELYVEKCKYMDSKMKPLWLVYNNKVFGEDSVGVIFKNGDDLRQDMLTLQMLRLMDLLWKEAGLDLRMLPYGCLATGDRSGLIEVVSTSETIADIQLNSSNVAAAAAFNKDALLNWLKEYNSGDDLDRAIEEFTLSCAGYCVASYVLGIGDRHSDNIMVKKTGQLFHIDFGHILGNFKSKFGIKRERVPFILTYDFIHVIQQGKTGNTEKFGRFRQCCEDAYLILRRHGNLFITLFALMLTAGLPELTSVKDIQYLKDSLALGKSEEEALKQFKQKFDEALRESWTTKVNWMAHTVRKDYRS

[25] = test system: JeKo-1; assay: Induction of apoptosis in human JeKo-1 cells assessed as late apoptotic cells at 0.25 uM incubated for 48 hrs by Annexin-V/FITC and PI staining based flow cytometric analysis (reference value: 3.66%); assay type: functional
[26] = target: CYP1A2 (Homo sapiens, UniProt P05177); assay: Inhibition of CYP1A2 in human liver microsomes using phenacetin as substrate at 10 uM in presence of NADPH regenerating system by LC-MS/MS analysis relative to control; assay type: ADME, Microsome; conditions: probe phenacetin
[27] = test system: JeKo-1; assay: Potency index, ratio of CI994 IC50 to test compound IC50 for antiproliferative activity against human JeKo-1 cells incubated for 48 hrs by resazurin based fluorescence microplate reader analysis; assay type: functional
[28] = test system: JeKo-1; assay: Induction of apoptosis in human JeKo-1 cells assessed as early apoptotic cells at 0.5 uM incubated for 48 hrs by Annexin-V/FITC and PI staining based flow cytometric analysis (reference value: […]); assay type: functional
[29] = target: Histone deacetylase 5 (Homo sapiens, UniProt Q9UQL6); assay: Inhibition of HDAC5 (unknown origin) using Boc-Lys(acetyl)-AMC as substrate preincubated for 1 hrs followed by substrate addition and measured after 2 hrs by spectrophotometer based fluorometric assay
[30] = Inhibition of PI3K/AKT/mTOR signaling in human JeKo-1 cells assessed as decrease in AKT phosphorylation at S473 residue at 0.25 uM incubated for 24 hrs by Western blot analysis; assay type: cell-based
[31] = target: CYP3A4 (Homo sapiens, UniProt P08684); assay: Inhibition of CYP3A4 in human liver microsomes using bufuralol as substrate at 10 uM in presence of NADPH regenerating system by LC-MS/MS analysis relative to control; assay type: ADME, Microsome; conditions: probe bufuralol
CYP3A4, sequence (P08684 whole entry): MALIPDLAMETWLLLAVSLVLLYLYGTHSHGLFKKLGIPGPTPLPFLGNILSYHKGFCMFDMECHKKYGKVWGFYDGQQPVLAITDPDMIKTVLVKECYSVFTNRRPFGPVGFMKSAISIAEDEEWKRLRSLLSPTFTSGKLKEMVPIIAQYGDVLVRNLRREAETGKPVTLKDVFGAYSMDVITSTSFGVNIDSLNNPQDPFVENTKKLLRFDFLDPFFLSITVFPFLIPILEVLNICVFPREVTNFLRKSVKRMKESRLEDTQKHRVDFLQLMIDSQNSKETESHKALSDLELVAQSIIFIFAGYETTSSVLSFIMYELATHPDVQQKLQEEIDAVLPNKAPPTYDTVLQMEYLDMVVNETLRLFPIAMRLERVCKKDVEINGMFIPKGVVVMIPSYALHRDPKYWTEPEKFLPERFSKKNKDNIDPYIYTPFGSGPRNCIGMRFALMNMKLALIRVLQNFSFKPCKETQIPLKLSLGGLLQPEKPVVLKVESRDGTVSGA

Histone deacetylase 3, sequence (O15379 whole entry, canonical isoform): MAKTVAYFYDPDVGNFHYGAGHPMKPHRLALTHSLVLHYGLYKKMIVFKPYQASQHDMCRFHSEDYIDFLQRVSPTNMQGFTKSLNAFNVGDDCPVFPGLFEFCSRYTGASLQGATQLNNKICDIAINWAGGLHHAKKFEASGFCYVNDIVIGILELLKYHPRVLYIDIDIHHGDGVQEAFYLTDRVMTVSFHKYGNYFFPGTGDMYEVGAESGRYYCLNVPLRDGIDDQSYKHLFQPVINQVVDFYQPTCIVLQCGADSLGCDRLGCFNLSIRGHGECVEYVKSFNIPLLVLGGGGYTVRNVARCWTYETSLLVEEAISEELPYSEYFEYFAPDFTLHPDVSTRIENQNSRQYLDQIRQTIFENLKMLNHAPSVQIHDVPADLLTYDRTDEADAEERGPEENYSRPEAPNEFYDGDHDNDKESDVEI

COc1nc(-c2ccc(NC(=O)Nc3ccc(C(=O)NCCCCCC(=O)Nc4ccccc4N)cc3)cc2)nc(N2CCOCC2)n1
IC50 [1]: 24.5 nM | IC50 [2]: 95.4 nM | IC50 [3]: > 10000 nM | viability at 0.25 µM [4]: 78.5% | inhibition at 30 µM [5]: 15.2% | remaining at 5 min [6]: 94% | IC50 [7]: 20.3 nM | IC50 [8]: 2900 nM | inhibition at 10 µM [9]: 14% | remaining at 0.25 h [10]: 65.8% | Ratio IC50 [11]: 2 | C0 at 24 h [12]: 13700 ng/mL | Activity [13]: 0.49% | inhibition at 10 µM [14]: 35.6% | remaining at 0.25 h [15]: 62.6% | IC50 at 48 h [16]: > 100000 nM | viability at 0.5 µM [17]: 48.8% | AUC(0-t) at 24 h [18]: 2700 ng·h/mL | IC50 [19]: > 10000 nM | IC50 [20]: 206 nM | remaining at 5 min [21]: 83.8% | viability at 1 µM [22]: 3.29% | MRT inf [23]: 2 h | IC50 [24]: 29.5 nM | Activity [25]: 15.1% | inhibition at 10 µM [26]: 2.52% | Ratio IC50 [27]: 2 | Activity [28]: 17.8% | IC50 [29]: > 10000 nM | inhibition [30]: Active | inhibition at 10 µM [31]: 32.5%

Reference: ChEMBL document CHEMBL5634161, “Discovery of benzamide-based PI3K/HDAC dual inhibitors with marked pro-apoptosis activity in lymphoma cells” (Eur J Med Chem, 2023)
